Structures are written as SMILES.

Assay [1] can be described thus: DRUGMATRIX: Calcium Channel Type L, Benzothiazepine radioligand binding (ligand: [3H] Diltiazem). The class given is cell membranes, Rattus norvegicus, Wistar, Brain, Membrane. The conditions noted are these: Not Active = under 50% inhibition at 10 µM.
In the next assay the target is T1, Substance-K receptor (Homo sapiens, UniProt P21452). Further: in other assays of this panel Not Active means under 50% inhibition at 10 µM.
T1 sequence (P21452 whole entry): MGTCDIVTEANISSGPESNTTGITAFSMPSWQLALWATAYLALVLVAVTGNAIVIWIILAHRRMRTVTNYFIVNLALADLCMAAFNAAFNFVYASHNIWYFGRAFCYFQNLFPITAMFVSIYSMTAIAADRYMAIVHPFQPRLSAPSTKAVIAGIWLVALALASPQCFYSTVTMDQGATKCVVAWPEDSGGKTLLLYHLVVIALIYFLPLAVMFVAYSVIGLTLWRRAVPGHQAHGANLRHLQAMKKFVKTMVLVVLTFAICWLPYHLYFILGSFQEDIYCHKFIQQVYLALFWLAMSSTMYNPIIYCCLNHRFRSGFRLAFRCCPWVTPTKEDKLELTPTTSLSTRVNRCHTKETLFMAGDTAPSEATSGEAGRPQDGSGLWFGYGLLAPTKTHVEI
Type of assay: cell membranes, CHO, Membrane.

The nature of assay [2]: DRUGMATRIX: Glutamate, Kainate radioligand binding (ligand: [3H] Kainic acid). Type of assay: cell membranes, Rattus norvegicus, Wistar, Brain, Membrane. The following applies: Not Active = under 50% inhibition at 10 µM.
The target of another assay is Melanocortin receptor 3 (Homo sapiens, UniProt P41968). The class given is cell membranes, Membrane. The conditions noted are these: hek293. Further: in other assays of this panel Not Active means under 50% inhibition at 10 µM.
Sequence of Melanocortin receptor 3 (P41968 whole entry): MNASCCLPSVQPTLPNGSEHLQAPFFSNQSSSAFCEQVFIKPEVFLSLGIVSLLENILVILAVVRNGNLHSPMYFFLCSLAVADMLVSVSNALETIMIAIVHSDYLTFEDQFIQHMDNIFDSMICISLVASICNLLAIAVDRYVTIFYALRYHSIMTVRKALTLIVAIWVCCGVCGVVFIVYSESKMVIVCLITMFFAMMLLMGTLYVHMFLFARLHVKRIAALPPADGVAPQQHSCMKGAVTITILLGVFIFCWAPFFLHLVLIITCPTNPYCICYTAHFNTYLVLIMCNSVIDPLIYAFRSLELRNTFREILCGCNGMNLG
Assay [3] addresses T2, Muscarinic acetylcholine receptor M4 (Homo sapiens, UniProt P08173).
T2 sequence (P08173 whole entry): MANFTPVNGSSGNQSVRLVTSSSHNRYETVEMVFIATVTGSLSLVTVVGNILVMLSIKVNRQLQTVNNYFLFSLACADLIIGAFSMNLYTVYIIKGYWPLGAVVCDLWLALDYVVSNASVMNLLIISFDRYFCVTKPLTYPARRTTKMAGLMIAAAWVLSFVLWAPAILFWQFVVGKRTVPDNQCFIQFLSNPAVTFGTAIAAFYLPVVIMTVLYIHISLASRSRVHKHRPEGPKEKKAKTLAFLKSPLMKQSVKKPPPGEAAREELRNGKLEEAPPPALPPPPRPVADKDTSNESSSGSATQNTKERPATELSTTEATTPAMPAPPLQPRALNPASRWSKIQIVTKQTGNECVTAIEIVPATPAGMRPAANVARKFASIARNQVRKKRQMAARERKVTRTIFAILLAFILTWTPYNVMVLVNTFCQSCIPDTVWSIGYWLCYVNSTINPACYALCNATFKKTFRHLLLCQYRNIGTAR
Type of assay: cell membranes, CHO-K1, Membrane.

The nature of assay [4]: DRUGMATRIX: Phorbol Ester radioligand binding (ligand: [3H] PDBu). Type of assay: cell membranes, Mus musculus, ICR, Brain, Membrane. The following applies: Not Active = under 50% inhibition at 10 µM.
Assay [5] deals with Receptor tyrosine-protein kinase erbB-2 (Homo sapiens, UniProt P04626). The experiment in a line: biochemical. The class given is cell-based, Insect cells. The conditions noted are these: insect cells.
Sequence of Receptor tyrosine-protein kinase erbB-2 (P04626 whole entry): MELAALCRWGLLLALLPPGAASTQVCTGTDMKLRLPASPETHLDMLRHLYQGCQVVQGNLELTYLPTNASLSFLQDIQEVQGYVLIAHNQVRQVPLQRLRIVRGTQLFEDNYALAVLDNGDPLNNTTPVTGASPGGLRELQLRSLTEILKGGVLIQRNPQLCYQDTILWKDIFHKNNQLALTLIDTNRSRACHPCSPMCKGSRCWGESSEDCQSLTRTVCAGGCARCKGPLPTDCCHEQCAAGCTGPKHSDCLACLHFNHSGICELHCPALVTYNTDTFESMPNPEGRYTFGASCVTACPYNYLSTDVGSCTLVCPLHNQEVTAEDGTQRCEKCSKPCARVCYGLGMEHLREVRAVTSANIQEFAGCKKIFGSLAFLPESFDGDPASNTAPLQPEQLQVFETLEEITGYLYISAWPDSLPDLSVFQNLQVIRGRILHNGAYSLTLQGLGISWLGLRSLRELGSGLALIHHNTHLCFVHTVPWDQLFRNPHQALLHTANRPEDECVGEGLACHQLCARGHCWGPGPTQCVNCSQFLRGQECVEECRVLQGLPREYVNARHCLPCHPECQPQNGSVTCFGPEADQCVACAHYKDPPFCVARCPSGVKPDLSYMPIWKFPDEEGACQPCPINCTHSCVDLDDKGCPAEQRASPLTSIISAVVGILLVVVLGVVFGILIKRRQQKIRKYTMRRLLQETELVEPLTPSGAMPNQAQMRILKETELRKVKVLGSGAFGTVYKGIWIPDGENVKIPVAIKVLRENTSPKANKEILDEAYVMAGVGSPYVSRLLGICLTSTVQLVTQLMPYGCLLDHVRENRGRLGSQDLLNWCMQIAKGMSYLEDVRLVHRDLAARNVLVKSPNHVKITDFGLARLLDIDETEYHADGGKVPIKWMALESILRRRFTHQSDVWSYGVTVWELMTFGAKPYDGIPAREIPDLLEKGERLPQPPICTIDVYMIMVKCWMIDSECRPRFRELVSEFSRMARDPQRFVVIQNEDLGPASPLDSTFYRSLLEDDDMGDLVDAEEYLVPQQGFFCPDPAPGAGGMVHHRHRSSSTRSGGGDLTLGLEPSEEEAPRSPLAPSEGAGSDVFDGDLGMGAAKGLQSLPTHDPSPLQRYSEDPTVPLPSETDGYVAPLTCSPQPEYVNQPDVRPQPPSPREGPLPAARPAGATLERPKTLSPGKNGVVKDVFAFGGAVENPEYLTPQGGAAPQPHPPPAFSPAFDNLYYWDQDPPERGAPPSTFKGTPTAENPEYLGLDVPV
Assay [6] addresses 5-hydroxytryptamine receptor 1B (Rattus norvegicus, UniProt P28564). The class given is cell membranes, Wistar, Cerebral cortex, Membrane. The conditions noted are these: for Ki: read-out: Ki.
The target of another assay is T3, Estrogen receptor (Homo sapiens, UniProt P03372). Further: in other assays of this panel Not Active means under 50% inhibition at 10 µM.
T3 sequence (P03372 whole entry): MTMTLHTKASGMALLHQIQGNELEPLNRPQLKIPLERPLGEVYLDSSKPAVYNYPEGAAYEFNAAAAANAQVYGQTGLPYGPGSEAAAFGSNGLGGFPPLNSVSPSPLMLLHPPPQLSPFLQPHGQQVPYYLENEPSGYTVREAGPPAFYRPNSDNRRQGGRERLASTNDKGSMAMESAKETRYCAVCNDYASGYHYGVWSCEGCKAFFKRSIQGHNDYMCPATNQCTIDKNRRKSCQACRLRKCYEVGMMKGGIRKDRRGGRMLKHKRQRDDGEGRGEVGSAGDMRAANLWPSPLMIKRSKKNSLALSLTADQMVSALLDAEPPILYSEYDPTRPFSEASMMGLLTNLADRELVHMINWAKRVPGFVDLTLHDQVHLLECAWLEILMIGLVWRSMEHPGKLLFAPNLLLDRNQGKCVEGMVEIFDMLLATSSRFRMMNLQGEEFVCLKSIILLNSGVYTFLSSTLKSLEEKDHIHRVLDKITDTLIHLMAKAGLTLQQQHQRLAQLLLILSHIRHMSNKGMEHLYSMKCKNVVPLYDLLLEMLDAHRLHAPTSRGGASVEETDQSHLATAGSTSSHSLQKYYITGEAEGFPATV
The following applies: sf9.

Sequence of 5-hydroxytryptamine receptor 1B (P28564 whole entry): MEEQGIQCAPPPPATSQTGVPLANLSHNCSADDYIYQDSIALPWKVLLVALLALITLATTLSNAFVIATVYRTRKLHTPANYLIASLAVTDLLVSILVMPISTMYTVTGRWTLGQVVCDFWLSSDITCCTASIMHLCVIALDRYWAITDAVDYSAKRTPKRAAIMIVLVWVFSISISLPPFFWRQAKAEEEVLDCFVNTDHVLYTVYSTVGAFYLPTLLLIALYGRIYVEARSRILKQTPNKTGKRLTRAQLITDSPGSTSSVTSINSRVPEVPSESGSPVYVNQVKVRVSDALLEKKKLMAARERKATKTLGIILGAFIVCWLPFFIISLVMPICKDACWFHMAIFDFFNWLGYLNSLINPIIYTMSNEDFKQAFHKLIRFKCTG

`N[C@H](CSC(=S)NCc1ccccc1)C(=O)O`: the IC50 entry (in [1]; against Substance-K receptor (cho); in [2]; against Melanocortin receptor 3; in assay [3] (cho-k1); in [4]) was “Not Active” throughout. Further, the concentration for half-maximal inhibition (IC50) result (in assay [5]; in [6]; at Estrogen receptor) was “Not Active” in each case. For the same compound, the inhibition constant Ki entry in assay [1], in assay [2] and in assay [4] was “Not Active” each time.

Regarding `CC(=O)N[C@@H]1[C@H](Oc2c3cc4cc2Oc2ccc(cc2Cl)[C@@H](O[C@@H]2O[C@@H](CO)[C@@H](O)[C@H](O)[C@@H]2NC(C)=O)[C@@H]2NC(=O)[C@H](NC(=O)[C@@H]4NC(=O)[C@H]4NC(=O)[C@@H](Cc5ccc(c(Cl)c5)O3)NC(=O)[C@H](N)c3ccc(O)c(c3)Oc3cc(O)cc4c3)c3ccc(O)c(c3)-c3c(O[C@H]4O[C@H](CO)[C@@H](O)[C@@H](O)[C@@H]4O)cc(O)cc3[C@@H](C(=O)O)NC2=O)O[C@@H](CO)[C@@H](O)[C@@H]1O`, the IC50 entry (in assay [1]; at Substance-K receptor (cho); in [2]; against Melanocortin receptor 3; in assay [3] (cho-k1); in assay [4]) was “Not Active” throughout. The IC50 result (in [5]; in assay [6]; against Estrogen receptor) was “Not Active” throughout. For the same compound, the inhibitory constant (Ki) result in assay [1], in assay [2] and in assay [4] was “Not Active” each time.

As to `Clc1ccc2c(c1)C(N1CCNCC1)=Nc1ccccc1O2` [AMOXAPINE], the IC50 result (against Substance-K receptor (cho); against Melanocortin receptor 3; in assay [5]; in [6]; against Estrogen receptor) was “Not Active” throughout.

On to `COc1cc2c(c(OC)c1OC)-c1ccc(OC)c(=O)cc1[C@@H](NC(C)=O)CC2` [COLCHICINE], for which the IC50 result (against Substance-K receptor (cho); at Melanocortin receptor 3; in [3] (cho-k1); in [5]; in assay [6]; against Estrogen receptor) was “Not Active” in each case.

As for `CN1CCC(=C2c3ccccc3C=Cc3ccccc32)CC1` [CYPROHEPTADINE], the IC50 (usually the concentration that gives 50% inhibition) at Substance-K receptor (cho) is “Not Active”; against Melanocortin receptor 3, “Not Active”; in [3] (read-out: IC50), 16 nM; in assay [5], “Not Active”; in [6] (read-out: IC50), 2.78 µM; against Estrogen receptor, “Not Active”. Moreover, the Ki – broadly, a dissociation constant, usually derived from enzyme kinetics or from competition with a known ligand – in assay [3] (read-out: Ki) was determined as 2.19 nM; in [6], 1.26 µM.

As to `CC(=O)N1CCN(c2ccc(OCC3COC(Cn4ccnc4)(c4ccc(Cl)cc4Cl)O3)cc2)CC1` (stereo not drawn) [KETOCONAZOLE], the IC50 is 32 µM in [1] (read-out: IC50); 17.2 µM on Substance-K receptor (read-out: IC50); “Not Active” in assay [2]; “Not Active” at Melanocortin receptor 3; “Not Active” in assay [3] (cho-k1); “Not Active” in assay [4]. The IC50 entry in assay [5] is “Not Active”; in [6] (read-out: IC50), 13.5 µM; against Estrogen receptor, “Not Active”. Moreover, the inhibitory constant (Ki) in assay [1] (read-out: Ki) is 28.5 µM; at Substance-K receptor (read-out: Ki), 5.75 µM; in assay [2], “Not Active”; in [4] it was “Not Active”; in assay [6] it was 6.15 µM.

`COCCOC(=O)C1=C(C)NC(C)=C(C(=O)OC(C)C)C1c1cccc([N+](=O)[O-])c1` (stereo not drawn) [NIMODIPINE]: the IC50 was 0.00209 µM in [1] (read-out: IC50); “Not Active” against Substance-K receptor (cho); “Not Active” in assay [2]; “Not Active” on Melanocortin receptor 3; “Not Active” in [3] (cho-k1); “Not Active” in [4]. Besides, the IC50 entry (in [5]; in [6]; on Estrogen receptor) was “Not Active” throughout. Besides, the values for the Ki in assay [1] (read-out: Ki), in [2] and in [4] were 0.00186 µM, “Not Active” and “Not Active”, respectively.

Regarding `CNC(=C[N+](=O)[O-])NCCSCc1ccc(CN(C)C)o1` [RANITIDINE], the half-inhibitory concentration (IC50) result (in assay [1]; against Substance-K receptor (cho); in assay [2]; against Melanocortin receptor 3; in assay [3] (cho-k1); in assay [4]) was “Not Active” in each case. Also, the IC50 result (in assay [5]; in assay [6]; at Estrogen receptor) was “Not Active” in each case. The Ki result in assay [1], in [2] and in [4] was “Not Active” each time.

In the case of `CO[C@H]1/C=C/O[C@@]2(C)Oc3c(C)c(O)c4c(c3C2=O)C2=NC3(CCN(CC(C)C)CC3)NC2=C(NC(=O)/C(C)=C\C=C\[C@H](C)[C@H](O)[C@@H](C)[C@@H](O)[C@@H](C)[C@H](OC(C)=O)[C@@H]1C)C4=O` [RIFABUTIN], the half-inhibitory concentration (IC50) result (in [1]; at Substance-K receptor (cho); in [2]; on Melanocortin receptor 3; in [3] (cho-k1); in assay [4]) was “Not Active” throughout. In addition, the IC50 entry (in assay [5]; in assay [6]; on Estrogen receptor) was “Not Active” throughout. In addition, the Ki result in assay [1], in [2] and in [4] was “Not Active” each time.

`CC(C)c1nc(CN(C)C(=O)N[C@H](C(=O)N[C@@H](Cc2ccccc2)C[C@H](O)[C@H](Cc2ccccc2)NC(=O)OCc2cncs2)C(C)C)cs1` [RITONAVIR]: the half-inhibitory concentration (IC50) entry (in assay [1]; in assay [2]; against Melanocortin receptor 3; in assay [3] (cho-k1); in assay [4]; in assay [5]) was “Not Active” in each case. Also, the IC50 entry (in assay [6]; at Estrogen receptor) was “Not Active” throughout. In addition, the Ki result in assay [1], in assay [2] and in assay [4] was “Not Active” each time.

On to `[H]/N=C(/N)N[C@H]1[C@H](O)[C@@H](O)[C@H](O[C@@H]2O[C@@H](C)[C@](O)(C=O)[C@H]2O[C@@H]2O[C@@H](CO)[C@H](O)[C@@H](O)[C@@H]2NC)[C@@H](N/C(N)=N\[H])[C@@H]1O` [STREPTOMYCIN], for which the half-maximal inhibitory concentration (IC50) result (in assay [1]; against Substance-K receptor (cho); in [2]; against Melanocortin receptor 3; in assay [3] (cho-k1); in [4]) was “Not Active” each time. In addition, the half-inhibitory concentration (IC50) result (in assay [5]; in assay [6]; on Estrogen receptor) was “Not Active” each time. In addition, the inhibition constant Ki entry in [1], in assay [2] and in assay [4] was “Not Active” in each case.

Regarding `Cc1onc(-c2ccccc2)c1-c1ccc(S(N)(=O)=O)cc1` [VALDECOXIB], the IC50 entry (in assay [1]; against Substance-K receptor (cho); in assay [2]; on Melanocortin receptor 3; in assay [3] (cho-k1); in [4]) was “Not Active” each time. In addition, the 50% inhibitory concentration (IC50) entry in assay [5] and in assay [6] was “Not Active” in each case. Moreover, the Ki entry in assay [1], in assay [2] and in assay [4] was “Not Active” throughout.

Take `CC(=O)CC(c1ccccc1)c1c(O)c2ccccc2oc1=O` (stereo not drawn) [WARFARIN]: the IC50 entry (in [1]; on Substance-K receptor (cho); in assay [2]; on Melanocortin receptor 3; in [3] (cho-k1); in [4]) was “Not Active” throughout. For the same compound, the concentration for half-maximal inhibition (IC50) result in [5] and in assay [6] was “Not Active” each time. For the same compound, the Ki entry in assay [1], in assay [2] and in [4] was “Not Active” throughout.

(Values after ChEMBL document CHEMBL1909046, “DrugMatrix in vitro pharmacology data”.)
